Molecular target: T1, MerTK (Homo sapiens, UniProt Q12866)
T1 construct: endogenous in cells; host or cells: Jurkat cells
T1 sequence (Q12866 21-999): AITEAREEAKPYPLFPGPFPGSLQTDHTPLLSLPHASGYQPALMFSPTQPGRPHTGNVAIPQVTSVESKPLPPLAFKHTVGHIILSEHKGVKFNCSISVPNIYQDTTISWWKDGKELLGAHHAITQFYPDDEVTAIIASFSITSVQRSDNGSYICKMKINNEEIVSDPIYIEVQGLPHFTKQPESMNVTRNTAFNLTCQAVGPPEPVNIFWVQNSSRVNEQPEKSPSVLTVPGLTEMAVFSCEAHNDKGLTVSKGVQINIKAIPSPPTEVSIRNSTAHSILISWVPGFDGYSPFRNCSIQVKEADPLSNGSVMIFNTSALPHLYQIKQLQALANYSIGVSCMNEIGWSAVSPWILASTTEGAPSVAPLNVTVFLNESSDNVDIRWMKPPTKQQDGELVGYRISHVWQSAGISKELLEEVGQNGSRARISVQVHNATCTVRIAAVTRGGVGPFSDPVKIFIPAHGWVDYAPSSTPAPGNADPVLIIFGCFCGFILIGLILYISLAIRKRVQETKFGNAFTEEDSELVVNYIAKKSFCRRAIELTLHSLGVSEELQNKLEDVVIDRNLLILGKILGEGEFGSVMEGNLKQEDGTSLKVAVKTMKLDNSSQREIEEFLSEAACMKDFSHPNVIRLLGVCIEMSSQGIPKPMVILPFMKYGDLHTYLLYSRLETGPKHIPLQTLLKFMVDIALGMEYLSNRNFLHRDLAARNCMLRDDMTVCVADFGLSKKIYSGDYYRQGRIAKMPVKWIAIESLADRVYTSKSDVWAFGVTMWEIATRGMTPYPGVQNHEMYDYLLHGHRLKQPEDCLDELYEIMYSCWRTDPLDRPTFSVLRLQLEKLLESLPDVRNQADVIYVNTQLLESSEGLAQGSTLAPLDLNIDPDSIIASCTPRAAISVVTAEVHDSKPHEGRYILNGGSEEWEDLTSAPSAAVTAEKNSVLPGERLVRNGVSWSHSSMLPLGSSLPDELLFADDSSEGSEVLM
Assay: MerTk degradation in Jurkat cells (Western blot)
Assay type: cell-based
Conditions: Jurkat, 4 h, 0.001-1 μM, 4 hour-incubation at 37° C., read-out: Jurkat Max % MerTK Degradation
In short: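 MerTK degradation was read by near-infrared Western blot, normalized to actin, in BCA-quantified lysates of Jurkat cells exposed to 0.001-1 μM compound for 4 h at 37 °C.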

Dmax [%]	SMILES
> 50	Cn1c(=O)n([C@H]2CCC(=O)NC2=O)c2ccc(CCOCCN3CCN(Cc4cccc(-c5cn([C@H]6CC[C@H](O)CC6)c6nc(NCCC(F)(F)F)ncc56)c4)CC3)cc21 [I-146, 3-[3-methyl-2-oxo-5-[2-(2-[4-[(3-[7-[trans-4-hydroxycyclohexy1]-2-[(3,3,3-trifluoropropyl)amino]pyrrolo[2,3-d]pyrimidin-5-yl]phenyl)methyl]piperazin-1-yl]ethoxy)ethyl]-1,3-benzodiazol-1-yl]piperidine-2,6-dione]
< 20	Cn1c(=O)n([C@H]2CCC(=O)NC2=O)c2ccc(CCOCCN3CCN(Cc4cn([C@H]5CC[C@H](O)CC5)c5nc(NCCC(F)(F)F)ncc45)CC3)cc21 [I-147, 3-[3-methyl-2-oxo-5-(2-[2-[4-([7-[(1r,4r)-4-hydroxycyclohexyl]-2-[(3,3,3-trifluoropropyl)amino]pyrrolo[2,3-d]pyrimidin-5-y1]methyl)piperazin-1-yl]ethoxy]ethyl)-1,3-benzodiazol-1-yl]piperidine-2,6-dione]
> 50	Cn1c(=O)n([C@H]2CCC(=O)NC2=O)c2ccc(COCCCN3CCN(Cc4ccc(-c5cn([C@H]6CC[C@H](O)CC6)c6nc(NCCC(F)(F)F)ncc56)cc4)CC3)cc21 [I-149, 3-[3-methyl-2-oxo-5-[(3-[4-[(4-[7-[trans-4-hydroxycyclohexy1]-2-[(3,3,3-trifluoropropyl)amino]pyrrolo[2,3-d]pyrimidin-5-yl]phenyl)methyl]piperazin-1-yl]propoxy)methyl]-1,3-benzodiazol-1-y1]piperidine-2,6-dione; formic acid]
> 50	Cn1c(=O)n([C@H]2CCC(=O)NC2=O)c2cccc(COCCCN3CCN(Cc4ccc(-c5cn([C@H]6CC[C@H](O)CC6)c6nc(NCCC(F)(F)F)ncc56)cc4)CC3)c21 [I-150, 3-[3-methyl-2-oxo-4-[(3-[4-[(4-[7-[trans-4-hydroxycyclohexyl]-2-[(3,3,3-trifluoropropyl)amino]pyrrolo[2,3-d]pyrimidin-5-yl]phenyl)methyl]piperazin-1-y1]propoxy)methyl]-1,3-benzodiazol-1-yl]piperidine-2,6-dione]
> 50	Cn1c(=O)n([C@H]2CCC(=O)NC2=O)c2ccc(COCCN3CCN(Cc4ccc(-c5cn([C@H]6CC[C@H](O)CC6)c6nc(NCCC(F)(F)F)ncc56)cc4)CC3)cc21 [I-151, trans-3-[3-methyl-2-oxo-5-[(2-[4-[(4-[7-[4-hydroxycyclohexy1]-2-[(3,3,3-trifluoropropyl)amino]pyrrolo[2,3-d]pyrimidin-5-y1]phenyl)methyl]piperazin-1-yl]ethoxy)methyl]-1,3-benzodiazol-1-yl]piperidine-2,6-dione; formic acid]
> 50	Cn1c(=O)n([C@H]2CCC(=O)NC2=O)c2cccc(COCCN3CCN(Cc4ccc(-c5cn([C@H]6CC[C@H](O)CC6)c6nc(NCCC(F)(F)F)ncc56)cc4)CC3)c21 [I-152, 3-[3-methyl-2-oxo-4-[(2-[4-[(4-[7-[trans-4-hydroxycyclohexyl]-2-[(3,3,3-trifluoropropyl)amino]pyrrolo[2,3-d]pyrimidin-5-yl]phenyl)methyl]piperazin-1-yl]ethoxy)methyl]-1,3-benzodiazol-1-yl]piperidine-2,6-dione; bis(formic acid)]
> 50	Cn1c(=O)n([C@H]2CCC(=O)NC2=O)c2ccc(CCCOCCOCCN3CCN(C[C@H]4CC[C@@H](c5cn([C@H]6CC[C@H](O)CC6)c6nc(NCCC(F)(F)F)ncc65)CC4)CC3)cc21 [I-153, 3-[3-methyl-2-oxo-5-(3-[2-[2-(4-[[(1s,4s)-4-[7-[trans-4-hydroxycyclohexyl]-2-[(3,3,3-trifluoropropyl)amino]pyrrolo[2,3-d]pyrimidin-5-yl]cyclohexyl]methyl]piperazin-1-yl)ethoxy]ethoxy]propyl)-1,3-benzodiazol-1-yl]piperidine-2,6-dione]

Source: patent US20260042762A1 (Kymera Therapeutics, Inc., priority 2018, published 2026)
